# Measurements as given in patent US20230172204A1 (BASF SE, priority 2020, published 2023).
# What was measured:
# [1] = system: Phakopsora pachyrhizi (F129L); assay: Protective control of soybean rust on soybeans (PHAKPA P2); type: in vivo; details: soybean rust F129L; for % PHAKPA (F129L) Disease level P2 at 4 ppm: protective P2, 4 ppm; for % PHAKPA (F129L) Disease level P2 at 16 ppm: protective P2, 16 ppm
# [2] = system: Phakopsora pachyrhizi (F129L); assay: Protective control of soybean rust on soybeans (PHAKPA P6); type: in vivo; details: soybean rust F129L; for % PHAKPA (F129L) Disease level P6 at 4 ppm: protective P6, 4 ppm; for % PHAKPA (F129L) Disease level P6 at 16 ppm: protective P6, 16 ppm
Compound,% PHAKPA (F129L) Disease level P2 at 4 ppm [1],% PHAKPA (F129L) Disease level P2 at 16 ppm [1],% PHAKPA (F129L) Disease level P6 at 4 ppm [2],% PHAKPA (F129L) Disease level P6 at 16 ppm [2]
CNC(=O)/C(=N/OC)c1cccc(C)c1CO/N=C(\CC(F)(F)F)c1ccccc1 [compound 380],53%,5%,60%,12%
CCC/C(=N\OCc1c(C)cccc1/C(=N\OC)C(=O)OC)c1ccccc1 [compound 387],60%,30%,80%,47%
CCC/C(=N\OCc1c(C)cccc1/C(=N\OC)C(=O)NC)c1ccccc1 [compound 388],1%,0%,3%,0%
CNC(=O)/C(=N/OC)c1cccc(C)c1CO/N=C(/c1ccccc1)C(C)C [compound 389],28%,4%,43%,3%
CO/C=C(/C(=O)OC)c1cccc(C)c1CO/N=C(\C)c1c(F)cccc1C(F)(F)F [compound 390],22%,0%,18%,2%
CNC(=O)/C(=N/OC)c1cccc(C)c1CO/N=C(\CC(F)(F)F)c1ccccc1C [compound 393],93%,55%,93%,42%
CNC(=O)/C(=N/OC)c1cccc(C)c1CO/N=C(\C)c1ccc(F)cc1CC(F)(F)F [compound 394],9%,3%,12%,2%
CO/N=C(/C(=O)OC)c1cccc(Br)c1CO/N=C(\C)c1ccccc1 [compound 395],43%,4%,67%,18%
CNC(=O)/C(=N/OC)c1cccc(Br)c1CO/N=C(\C)c1ccccc1 [compound 396],3%,0%,4%,0%
C=C(C)c1cccc(/C(=N\OC)C(=O)NC)c1CO/N=C(\C)c1ccccc1 [compound 399],67%,8%,90%,15%
C=Cc1cccc(/C(=N\OC)C(=O)NC)c1CO/N=C(\C)c1ccccc1 [compound 400],2%,0%,8%,0%
C#Cc1cccc(/C(C)=N/OCc2c(C)cccc2/C(=N\OC)C(=O)NC)c1F [compound 401],17%,5%,32%,4%
CO/C=C(/C(=O)OC)c1cccc(C)c1CO/N=C(\C)c1cc(F)c(F)cc1CC(F)(F)F [compound 405],97%,27%,70%,27%
CNC(=O)/C(=N/OC)c1cccc(C)c1CO/N=C(\C)c1cc(F)c(F)cc1CC(F)(F)F [compound 406],97%,30%,67%,23%
CNC(=O)/C(=N/OC)c1cccc(C)c1CO/N=C(\C)c1ccc(Cc2ccccc2)cc1C(F)(F)F [compound 407],12%,6%,17%,4%
CO/N=C(/C(=O)OC)c1cccc(C)c1CO/N=C(\C)c1ccc(Cc2ccccc2)cc1C(F)(F)F [compound 408],30%,12%,33%,13%
CO/N=C(/C(=O)OC)c1cccc(C)c1CO/N=C(\C)c1cc(F)c(F)cc1C(F)(F)F [compound 409],77%,40%,83%,73%
CNC(=O)/C(=N/OC)c1cccc(C)c1CO/N=C(\C)c1cc(F)c(F)cc1C(F)(F)F [compound 410],9%,0%,35%,1%

Compound,% PHAKPA (F129L) Disease level P2 at 4 ppm [1],% PHAKPA (F129L) Disease level P2 at 16 ppm [1],% PHAKPA (F129L) Disease level P6 at 4 ppm [2],% PHAKPA (F129L) Disease level P6 at 16 ppm [2]
CNC(=O)/C(=N/OC)c1cccc(C)c1CO/N=C(\C)c1ccc(Cl)c(F)c1CC(F)(F)F [compound 412],47%,6%,40%,6%
CNC(=O)/C(=N/OC)c1cccc(C)c1CO/N=C(\C)c1ccc(-c2ccccc2)cc1C(F)(F)F [compound 413],40%,15%,33%,15%
CO/N=C(/C(=O)OC)c1cccc(C)c1CO/N=C(\C)c1ccc(-c2ccccc2)cc1C(F)(F)F [compound 414],53%,9%,53%,15%
CNC(=O)/C(=N/OC)c1cccc(C)c1CO/N=C(\C)c1ccc(/C(C)=N\OC)cc1OC(F)(F)F [compound 415],47%,5%,67%,11%
CO/N=C(/C(=O)OC)c1cccc(C)c1CO/N=C(\C)c1ccc(Cc2ccccc2)cc1OC(F)(F)F [compound 416],57%,27%,67%,25%
CO/N=C(/C)c1ccc(/C(C)=N/OCc2c(C)cccc2/C(=N\OC)C(=O)OC)c(C(F)(F)F)c1 [compound 417],35%,18%,63%,22%
CO/N=C(/C)c1ccc(/C(C)=N/OCc2c(C)cccc2/C(=N\OC)C(=O)OC)c(OC(F)(F)F)c1 [compound 418],70%,33%,73%,57%
CNC(=O)/C(=N/OC)c1cccc(C)c1CO/N=C(\C)c1ccc(Cc2ccccc2)cc1OC(F)(F)F [compound 419],40%,18%,60%,12%
CNC(=O)/C(=N/OC)c1cccc(C)c1CO/N=C(\C)c1ccc(/C(C)=N\OC)cc1C(F)(F)F [compound 420],8%,0%,12%,1%
CO/N=C(/C(=O)OC)c1cccc(C)c1CO/N=C(\C)c1cccc(Cl)c1C(F)(F)F [compound 421],100%,33%,87%,57%
CNC(=O)/C(=N/OC)c1cccc(C)c1CO/N=C(\C)c1cccc(Cl)c1C(F)(F)F [compound 422],30%,0%,32%,2%
CO/N=C(/C(=O)OC)c1cccc(C)c1CO/N=C(\C)c1ccc(C#N)cc1C(F)(F)F [compound 423],100%,57%,93%,53%
CNC(=O)/C(=N/OC)c1cccc(C)c1CO/N=C(\C)c1ccc(C#N)cc1C(F)(F)F [compound 424],100%,27%,97%,50%
CO/N=C(/C(=O)OC)c1cccc(C)c1CO/N=C(\C)c1ccc(-c2ccc(F)cc2)cc1C(F)(F)F [compound 425],27%,28%,53%,40%
CNC(=O)/C(=N/OC)c1cccc(C)c1CO/N=C(\C)c1ccc(-c2ccc(F)cc2)cc1C(F)(F)F [compound 426],7%,1%,27%,10%
CO/N=C(/C(=O)OC)c1cccc(C)c1CO/N=C(\C)c1c(Cl)cc(Cl)cc1OC(F)(F)F [compound 427],100%,90%,60%,47%
CNC(=O)/C(=N/OC)c1cccc(C)c1CO/N=C(\C)c1c(Cl)cc(Cl)cc1OC(F)(F)F [compound 428],70%,11%,83%,20%
